Measurements: PMC12221116, “Novel Quinazolinones Active against Multidrug‐Resistant Mycobacterium Tuberculosis: Synthesis, Antimicrobial Evaluation, and in Silico Exploration of Penicillin‐Binding Protein 1A as a Potential Target” (Chemmedchem, 2025)
≈ marks a conversion by molar mass, not a printed value. Read-outs that look alike come from different tables or passages of the source.

Key:
Mtb H37Rv = test: Microplate Alamar Blue assay, MIC; format: cell-based, Mycobacterium tuberculosis; conditions: for MIC: Mycobacterium tuberculosis, H37RV
Mtb H37Ra = test: Microdilution broth resazurin assay, MIC; format: cell-based, Mycobacterium tuberculosis
M. kansasii = test: Microplate Alamar Blue assay, MIC; format: cell-based, Mycobacterium kansasii; conditions: for MIC: Mycobacterium kansasii, read-out: Antimycobacterial Activity MIC M. kans.
M. avium = test: Microdilution broth resazurin assay, MIC; format: cell-based, Mycobacterium avium
M. smegmatis = test: Microdilution broth resazurin assay, MIC; format: cell-based, Mycolicibacterium smegmatis; conditions: for MIC: Mycolicibacterium smegmatis, read-out: Antimycobacterial Activity MIC M. smeg.
M. aurum = test: Microdilution broth resazurin assay, MIC; format: cell-based, Mycolicibacterium aurum; conditions: for MIC: Mycolicibacterium aurum, read-out: Antimycobacterial Activity MIC M. aurum
[1] = Microplate Alamar Blue assay, read-out: Antimycobacterial Activity MIC Mtb H37Rv
[2] = Mycobacterium tuberculosis, H37RA; read-out: Antimycobacterial Activity MIC Mtb H37Ra
[3] = Mycobacterium avium, read-out: Antimycobacterial Activity MIC M. avium
[4] = read-out: Antimycobacterial Activity MIC Mtb H37Rv, Table S5 matching pairs series A and B
[5] = Mycobacterium tuberculosis, H37RA, read-out: Antimycobacterial Activity MIC Mtb H37Ra
[6] = Mycobacterium avium; read-out: Antimycobacterial Activity MIC M. avium

| SMILES | MIC (Mtb H37Rv; [1]) [µg/mL] | MIC (Mtb H37Ra; [2]) [µg/mL] | MIC (M. kansasii) [µg/mL] | MIC (M. avium; [3]) [µg/mL] | MIC (M. smegmatis) [µg/mL] | MIC (M. aurum) [µg/mL] | Antimycobacterial Activity MIC Mtb H37Rv (Mtb H37Rv; Microplate Alamar Blue assay) [µg/mL] | Antimycobacterial Activity MIC Mtb H37Ra (Mtb H37Ra) [µg/mL] | Antimycobacterial Activity MIC M. kans. (M. kansasii) [µg/mL] | Antimycobacterial Activity MIC M. avium (M. avium) [µg/mL] | Antimycobacterial Activity MIC M. smeg. (M. smegmatis) [µg/mL] | Antimycobacterial Activity MIC M. aurum (M. aurum) [µg/mL] | MIC (Mtb H37Rv; [4]) [µg/mL] | MIC (Mtb H37Ra; [5]) [µg/mL] | MIC (M. avium; [6]) [µg/mL] | Antimycobacterial Activity MIC M. avium (M. avium; Table S5 matching pairs series A and B) [µg/mL] |
| --- | --- | --- | --- | --- | --- | --- | --- | --- | --- | --- | --- | --- | --- | --- | --- | --- |
| Cc1nc2cc(Cl)ccc2c(=O)n1/N=C/c1ccccc1O [Compound 35] | > 50 | ≥ 31.2 | > 50 | ≥ 31.2 | ≥ 31.2 | ≥ 31.2 |  |  |  |  |  |  |  |  |  |  |
| Cc1nc2ccccc2c(=O)n1Cc1cccc(F)c1 [Compound 4] |  |  |  |  |  |  | 100 | 250 | 50 | 125 | 250 | 500 |  |  |  |  |
| Cc1nc2cc(Cl)ccc2c(=O)n1/N=C/c1ccncc1 [Compound 31] | > 25 | ≥ 31.2 | > 25 | ≥ 31.2 | ≥ 31.2 | ≥ 31.2 |  |  |  |  |  |  |  |  |  |  |
| Cc1nc2ccccc2c(=O)n1Cc1cc(F)cc(C(F)(F)F)c1 [Compound 9] |  |  |  |  |  |  | >100 | 125 | >100 | 62.5 | ≥500 | 62.5 |  |  |  |  |
| Cc1nc2cc(Cl)ccc2c(=O)n1Cc1ccc2ccccc2c1 [Compound 23] | > 100 |  | > 100 | ≥ 125 | ≥ 125 | ≥ 125 |  | ≥125 |  | ≥125 | ≥125 | ≥125 | > 100 | ≥ 125 |  |  |
| Cc1nc2cc(Cl)ccc2c(=O)n1/N=C/c1ccccc1Br [Compound 52] | > 25 | ≥ 31.2 | > 25 | ≥ 31.2 | ≥ 31.2 | ≥ 31.2 |  |  |  |  |  |  |  |  |  |  |
| Cc1nc2cc(Cl)ccc2c(=O)n1/N=C/c1ccc(O)cc1O [Compound 33] | > 100 | ≥ 62.5 | > 100 | ≥ 62.5 | ≥ 62.5 | ≥ 62.5 |  |  |  |  |  |  |  |  |  |  |
| Cc1nc2cc(Cl)ccc2c(=O)n1Cc1cccc(O)c1 [Compound 13] | 50 (≈ 166 µM) | ≥ 62.5 | > 100 |  | ≥ 62.5 | ≥ 62.5 |  |  |  |  |  |  |  |  | 62.5 (≈ 208 µM) |  |
| Cc1ccccc1/C=N/n1c(C)nc2cc(Cl)ccc2c1=O [Compound 46] | > 25 | ≥ 62.5 | > 25 | ≥ 62.5 | ≥ 62.5 | ≥ 62.5 |  |  |  |  |  |  |  |  |  |  |
| COc1cccc(Cn2c(C)nc3cc(Cl)ccc3c2=O)c1 [Compound 16] | > 100 |  | > 100 |  | ≥ 125 | ≥ 125 |  | 62.5 |  |  | ≥125 | ≥125 | > 100 | 62.5 (≈ 199 µM) | ≥ 500 | ≥ 500 |
| COc1ccccc1/C=N/n1c(C)nc2cc(Cl)ccc2c1=O [Compound 38] | > 25 | ≥ 62.5 | > 25 | ≥ 62.5 | ≥ 62.5 | ≥ 62.5 |  |  |  |  |  |  |  |  |  |  |
| Cc1nc2cc(Cl)ccc2c(=O)n1/N=C/c1ccccc1[N+](=O)[O-] [Compound 26] | > 25 | ≥ 62.5 | > 25 | ≥ 62.5 | ≥ 62.5 | ≥ 62.5 |  |  |  |  |  |  |  |  |  |  |
| Cc1nc2cc(Cl)ccc2c(=O)n1/N=C/c1cccc(Br)c1 [Compound 53, (E)-7-Chloro-3-((3-bromobenzylidene)amino)-2-methylquinazolin-4(3H)-one] | > 25 | ≥ 31.2 | > 25 | ≥ 31.2 | ≥ 31.2 | ≥ 31.2 |  |  |  |  |  |  |  |  |  |  |
